Laboratory results: publication PMC5840146, “Structure-Activity Relationship Analysis of 3-Phenylcoumarin-Based Monoamine Oxidase B Inhibitors” (Frontiers in Chemistry, 2018)

Legend:
MAO-A = target: T1, MAO-A (Homo sapiens, UniProt P21397); assay: continuous spectrophotometric MAO-A inhibition assay; format: biochemical; details: for MAO-A inhibition %: 100 µM, 1h
T1 construct: purchased Sigma-Aldrich
T1 sequence (P21397 1-527): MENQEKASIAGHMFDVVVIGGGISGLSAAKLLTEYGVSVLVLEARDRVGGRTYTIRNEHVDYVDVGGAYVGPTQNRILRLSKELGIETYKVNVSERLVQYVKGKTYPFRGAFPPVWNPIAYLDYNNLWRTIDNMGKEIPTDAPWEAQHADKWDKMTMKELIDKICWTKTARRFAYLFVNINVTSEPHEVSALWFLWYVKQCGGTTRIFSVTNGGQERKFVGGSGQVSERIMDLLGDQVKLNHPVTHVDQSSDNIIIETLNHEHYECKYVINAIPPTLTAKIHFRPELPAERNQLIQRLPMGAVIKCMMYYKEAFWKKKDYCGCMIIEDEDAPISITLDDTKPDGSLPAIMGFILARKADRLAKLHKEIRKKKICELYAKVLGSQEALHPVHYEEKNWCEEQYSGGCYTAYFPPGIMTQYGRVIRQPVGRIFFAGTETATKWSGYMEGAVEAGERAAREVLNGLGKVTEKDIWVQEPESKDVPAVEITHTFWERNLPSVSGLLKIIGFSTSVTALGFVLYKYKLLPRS
Description: Both monoamine oxidase A (MAO-A) and B (MAO-B) protein and the reagents for the chromogenic solution of vanillic acid (4-hydroxy-3-methoxylbenzoic acid, 97% purity), 4-aminoantipyrine (reagent grade), horseradish peroxidase and the substrate tyramine hydrochloride (minimum 99% purity) as well as the potassium phosphate buffer, which was prepared using potassium phosphate dibasic trihydrate (≥99% ReagentPlus™) and potassium phosphate monobasic (minimum 98% purity, molecular biology tested), were purchased from Sigma-Aldrich (St. Louis, MO, USA) for the spectrophotometric assay.
The protocol for continuous spectrophotometric assay (Holt et al., [1997]) was followed in the activity measurements. The assay was performed in 0.2 M potassium phosphate buffer pH 7.6 on 96-well plates (Nunc™ 96F microwell plate without a lid, Nunc A/S, Roskilde, DK) in 200 μl total volume. The chromogenic solution containing 1 mM vanillic acid, 500 μM 4-aminoantipyrine and 8 U/ml horseradish peroxidase in 0.2 M potassium phosphate buffer pH 7.6 was mixed anew for each measurement. 5 mM tyramine solution was used as the substrate. In order to determine the activity of both MAO-B and MAO-A, concentration series as duplicates were prepared. The protein was combined with the chromogenic solution and incubated 30 min at 37°C. The background signal was measured using multilabel reader (Victor^TM X4, 2030 Multilabel Reader, PerkinElmer, Waltham, MA, USA) at A490 before reaching the total 200 μl volume by adding 20 μl of tyramine to final concentration of 0.5 mM on the plate. As a result, the final concentration of the chromogenic solution on the plate was 250 μM vanillic acid, 125 μM 4-aminoantipyrine and 2 U/ml horseradish peroxide. After adding the substrate, the plates were measured 300 times every 15 s using 1 s exposure time. The device was set to 37°C for the duration of the experiment.
The experiment conditions should produce absorbance change of ~0.35 (Holt et al., [1997]). […] The same wide panel of coumarin derivatives was additionally used to analyze the MAO-A inhibition at 100 μM (Table 1, Supplementary Table S1).
The measured data was then fitted on a curve using non-linear regression with the equation for log[inhibitor] vs. response. The IC50 values were therefore determined based on the curve fit. The fitted curves are shown on –log scale in Supplementary Figures S1, S2.

recombinant human HSD1 = target: T2, recombinant human HSD1 (Homo sapiens, UniProt P14061); assay: HSD1 inhibition by HPLC with tritium labeled estrone/estradiol; format: biochemical; details: 1 μM
T2 construct: made in house; host or cells: Sf9 insect cells
T2 sequence (P14061 1-328): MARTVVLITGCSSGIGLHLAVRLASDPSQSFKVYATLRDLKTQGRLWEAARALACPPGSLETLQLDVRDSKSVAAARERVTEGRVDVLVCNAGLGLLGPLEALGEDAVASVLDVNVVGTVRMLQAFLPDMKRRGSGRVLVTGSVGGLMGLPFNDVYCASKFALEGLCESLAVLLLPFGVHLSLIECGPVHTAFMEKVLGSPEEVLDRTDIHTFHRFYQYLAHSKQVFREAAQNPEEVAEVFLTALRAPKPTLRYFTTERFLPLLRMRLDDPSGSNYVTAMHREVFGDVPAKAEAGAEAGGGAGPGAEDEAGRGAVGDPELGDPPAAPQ

ERα = target: T3, ERα (Homo sapiens, UniProt P03372); assay: PolarScreen ER Alpha Competitor Assay (fluorescence polarization); format: binding; details: for inhibition at 10 µM / ER inhibition %: 10 μM
T3 construct: purchased Life Technologies
T3 sequence (P03372 1-595): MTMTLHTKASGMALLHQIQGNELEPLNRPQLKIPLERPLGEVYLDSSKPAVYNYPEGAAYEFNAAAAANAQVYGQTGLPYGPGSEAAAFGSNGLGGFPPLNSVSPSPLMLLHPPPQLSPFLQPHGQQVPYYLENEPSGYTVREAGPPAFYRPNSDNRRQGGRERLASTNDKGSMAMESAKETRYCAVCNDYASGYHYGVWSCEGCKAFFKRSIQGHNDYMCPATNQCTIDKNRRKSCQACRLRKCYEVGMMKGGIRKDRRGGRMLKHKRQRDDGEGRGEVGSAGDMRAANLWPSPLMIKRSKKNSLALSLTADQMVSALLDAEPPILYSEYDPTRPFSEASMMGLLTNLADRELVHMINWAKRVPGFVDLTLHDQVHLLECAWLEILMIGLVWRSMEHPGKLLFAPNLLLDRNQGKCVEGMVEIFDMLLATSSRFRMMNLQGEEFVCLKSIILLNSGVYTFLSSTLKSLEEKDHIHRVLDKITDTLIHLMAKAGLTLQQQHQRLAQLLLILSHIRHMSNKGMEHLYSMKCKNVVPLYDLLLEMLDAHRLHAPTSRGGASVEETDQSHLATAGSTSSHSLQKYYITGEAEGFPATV
Description: The pIC50 values for the derivatives (Table 1, Supplementary Table S1) were measured with green PolarScreen™ ER Alpha Competitor Assay (Life Technologies, CA, The United States of America) kit, following the manufacturer protocol as previously described (Niinivehmas et al., [2016]). The final concentration of the compounds ranged from 0.0007 to 10 000 nM in the dilution series which were performed as duplicates. The molecules were combined with 25 nM ERα and 4.5 nM fluormone in the assay buffer and placed on black low volume 384-well assay plate with NBS surface (Corning, NY, The United States of America). After mixing the assay plate, it was incubated for 2 h in RT. The fluorescence polarization was measured using excitation wave length 485 and emission wave length 535 with bandwidths of 25/20 nm on a 2104 EnVision® Multilabel Plate Reader which had EnVision Workstation version 1.7 (PerkinElmer, MA, The United States of America).

Structure (SMILES)	inhibition at 100 µM (MAO-A)	inhibition at 1 µM (recombinant human HSD1)	inhibition at 10 µM (ERα)	ER activity (in words) (ERα)	HSD1 inhibition % (recombinant human HSD1)	MAO-A inhibition % (MAO-A)	ER inhibition % (ERα)
COc1cccc(-c2cc3cc(OC)ccc3oc2=O)c1 [derivative 8, 6-methoxy-3-(3-methoxyphenyl)-2H-chromen-2-one]	0%	0%	0%				
COc1cccc(-c2cc3ccccc3oc2=O)c1 [derivative 11, 3-(3-methoxyphenyl)-2H-chromen-2-one]	0%	4%	0.29%				
COc1ccc(-c2cc3ccc(O)cc3oc2=O)cc1 [derivative 12, 7-hydroxy-3-(4-methoxyphenyl)-2H-chromen-2-one]	24.6%	3%	91.3%	prominent			
COc1ccc2oc(=O)c(-c3ccc(N(C)C)cc3)cc2c1 [derivative 18, 3-(4-(dimethylamino)phenyl)-6-methoxy-2H-chromen-2-one]	0%	1%	0%				
COc1ccc2oc(=O)c(-c3ccc(F)cc3)cc2c1 [derivative 21, 3-(4-fluorophenyl)-6-methoxy-2H-chromen-2-one]	0%	0%	0%				
O=c1oc2ccc(O)cc2cc1-c1ccc(F)cc1 [derivative 24, 3-(4-fluorophenyl)-6-hydroxy-2H-chromen-2-one]	14.2%	20%	0%				
COc1cccc(-c2cc3ccc(OC)cc3oc2=O)c1 [derivative 25]					3.50%	0.00%	0.00%
CC(=O)Oc1ccc2cc(-c3ccc(F)cc3)c(=O)oc2c1 [derivative 28]				prominent	0.30%	0.00%	57.12%
COc1ccc(-c2cc3ccccc3oc2=O)cc1 [derivative 36]					3.80%	0.87%	0.00%
O=c1oc2ccc(O)cc2cc1-c1cccc(O)c1 [derivative 38]					49.10%	13.11%	18.53%

Continued, values first:

inhibition at 100 µM (MAO-A)	inhibition at 1 µM (recombinant human HSD1)	inhibition at 10 µM (ERα)	ER activity (in words) (ERα)	HSD1 inhibition % (recombinant human HSD1)	MAO-A inhibition % (MAO-A)	ER inhibition % (ERα)	Structure (SMILES)
0%	0%	1.08%					Cc1ccc2oc(=O)c(-c3ccc(C(F)(F)F)cc3)cc2c1 [derivative 5, 6-methyl-3-(4-(trifluoromethyl)phenyl)-2H-chromen-2-one]
0%	12%	0%					COc1ccc2oc(=O)c(-c3cc(F)c(F)cc3F)cc2c1 [derivative 15, 6-methoxy-3-(2,4,5-trifluorophenyl)-2H-chromen-2-one]
	33%	8.8%					COc1ccc2cc(-c3cc(F)c(F)cc3F)c(=O)oc2c1 [derivative 16, 7-methoxy-3-(2,4,5-trifluorophenyl)-2H-chromen-2-one]
0%	46%	86.1%	prominent				COc1ccc2cc(-c3ccc(O)c(F)c3)c(=O)oc2c1 [derivative 20, 3-(3-fluoro-4-hydroxyphenyl)-7-methoxy-2H-chromen-2-one]
0%	54%	55.4%	prominent				COc1ccc2oc(=O)c(-c3ccc(O)c(F)c3)cc2c1 [derivative 22, 3-(3-fluoro-4-hydroxyphenyl)-6-methoxy-2H-chromen-2-one]
0%	12 to 33%	0%		11%			Cc1ccc2oc(=O)c(-c3ccc(F)cc3)cc2c1 [derivative 23, 3-(4-fluorophenyl)-6-methyl-2H-chromen-2-one]
			prominent	12.50%	43.83%	70.96%	Cc1ccc(-c2cc3ccc(O)cc3oc2=O)cc1 [derivative 27]
			prominent	5.40%	0.00%	74.22%	O=c1oc2ccccc2cc1-c1ccc(O)cc1 [derivative 29]
			prominent	48.20%	0.00%	58.53%	O=c1oc2cc(O)ccc2cc1-c1ccc(O)cc1 [derivative 30]
				56.00%	4.14%	0.00%	O=c1oc2ccccc2cc1-c1cccc(O)c1 [derivative 31]
				76.70%	3.66%	0.00%	COc1ccc(-c2cc3cccc(O)c3oc2=O)cc1 [derivative 33]
			prominent	0.00%	12.56%	100.63%	O=c1oc2cc(O)ccc2cc1-c1ccc(F)cc1 [derivative 39]
			prominent		9.52%	101.40%	O=c1oc2cc(O)ccc2cc1-c1ccccc1 [derivative 41]
				0.00%	8.11%	0.00%	COc1ccc2oc(=O)c(-c3ccc(Oc4ccc(F)cc4)cc3)cc2c1 [derivative 46]
			prominent	83.90%	0.00%	98.41%	O=c1oc2ccc(O)cc2cc1-c1ccc(O)cc1 [derivative 48]
